Patent US7851474B2, “Dipiperazinyl ketones and related analogues” (Neurogen Corporation, priority 2005, dated 2010)
Read-outs that look alike come from different tables or passages of the source.

Target: T1, chimeric human H3 receptor (Homo sapiens, UniProt Q9Y5N1, E19D)
T1 construct: made in house; host or cells: Sf9 insect cells (baculovirus infection); P2 membrane preparation
Assay: Chimeric human H3 receptor screening GTP binding assay (inhibition of histamine-stimulated GTP-gamma35S binding, Example 8)
Format: biochemical
Details: 1 h, read-out: percent inhibition of agonist-induced GTP-gammaS binding to H3
In short: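 Data are percent inhibition of the 1 μM histamine-stimulated GTP-gamma35S (125 pM) binding, after non-specific binding (10 uM GTP-gammaS) is subtracted. Test compound at 4 μM. Incubation was 60 min at room temperature with Sf9 membranes bearing receptor plus G-protein subunits, buffer pH 7.4 with 10 μM GDP, and filtration read-out.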

[1] = assay described in Example 8, symbol + in column headed Ki of Table II
[2] = Table II, "+" in the column headed Ki, assay of Example 8
[3] = "+" in Ki of Table II, assay of Example 8

T1 sequence (Q9Y5N1 with tags, fused parts or gaps E19D): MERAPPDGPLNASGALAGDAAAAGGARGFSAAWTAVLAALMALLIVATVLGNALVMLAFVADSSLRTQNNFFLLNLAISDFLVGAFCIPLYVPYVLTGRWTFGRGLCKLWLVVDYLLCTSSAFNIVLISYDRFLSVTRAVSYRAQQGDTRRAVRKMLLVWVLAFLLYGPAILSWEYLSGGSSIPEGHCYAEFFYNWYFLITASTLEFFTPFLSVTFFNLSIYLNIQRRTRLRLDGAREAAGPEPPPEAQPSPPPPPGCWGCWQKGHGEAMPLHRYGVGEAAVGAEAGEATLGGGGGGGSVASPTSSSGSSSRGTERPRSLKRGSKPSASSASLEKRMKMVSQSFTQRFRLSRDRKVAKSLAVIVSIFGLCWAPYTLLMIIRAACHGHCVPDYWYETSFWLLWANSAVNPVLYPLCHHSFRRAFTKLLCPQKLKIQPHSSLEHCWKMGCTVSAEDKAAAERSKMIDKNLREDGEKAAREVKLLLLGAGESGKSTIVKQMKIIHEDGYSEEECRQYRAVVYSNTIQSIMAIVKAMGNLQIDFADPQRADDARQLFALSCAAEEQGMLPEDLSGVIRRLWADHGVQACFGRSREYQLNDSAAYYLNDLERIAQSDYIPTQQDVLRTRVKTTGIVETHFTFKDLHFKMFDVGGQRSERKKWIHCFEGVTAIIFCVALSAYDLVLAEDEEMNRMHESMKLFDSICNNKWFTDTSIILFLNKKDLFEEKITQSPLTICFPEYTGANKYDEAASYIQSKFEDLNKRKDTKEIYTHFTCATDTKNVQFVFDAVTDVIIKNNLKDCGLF

Q: For `CC(C)(C)c1ccc(OCC(=O)N2CCN(CC(=O)N3CCN(C4CCC4)CC3)CC2)cc1` [Compound 408, 1-[(4-tert-butylphenoxy)acetyl]-4-[2-(4-cyclobutylpiperazin-1-yl)-2-oxoethyl]piperazine], which inhibition at 4 µM [1] is on record?
A: > 90%

Q: How did the inhibition at 4 µM [2] turn out when `Cc1nc(-c2ccc(C(F)(F)F)cc2)sc1C(=O)N1CCN(CC(=O)N2CCN(C3CCC3)CC2)CC1` [Compound 660, 1-cyclobutyl-4-{[4-({4-methyl-2-[4-(trifluoromethyl)phenyl]-1,3-thiazol-5-yl}carbonyl)piperazin-1-yl]acetyl}piperazine] was run?
A: > 90%

Q: `Cc1cccc(C(=O)N2CCN(CC(=O)N3CCN(C4CCC4)CC3)CC2)c1F` [Compound 703, 1-cyclobutyl-4-{[4-(2-fluoro-3-methylbenzoyl)piperazin-1-yl]acetyl}piperazine] was tested. Which inhibition at 4 µM [2] did it give?
A: > 90%

Q: How did the inhibition at 4 µM [2] turn out when `O=C(CN1CCN(C(=O)c2ccc(Cl)c(Cl)c2)CC1)N1CCN(C2CCC2)CC1` [Compound 726, 1-cyclobutyl-4-{[4-(3,4-dichlorobenzoyl)piperazin-1-yl]acetyl}piperazine] was run?
A: > 90%

Q: With `CSc1ccc(CC(=O)N2CCN(CC(=O)N3CCN(C4CCC4)CC3)CC2)cc1` [Compound 628, 1-cyclobutyl-4-[(4-{[4-(methylthio)phenyl]acetyl}piperazin-1-yl)acetyl]piperazine] as the molecule, how does the inhibition at 4 µM [2] read?
A: > 90%

Q: How did the inhibition at 4 µM [1] turn out when `O=C(CN1CCN(C(=O)c2ccccc2-c2ccccc2)CC1)N1CCN(C2CCC2)CC1` [Compound 374, 1-(biphenyl-2-ylcarbonyl)-4-[2-(4-cyclobutylpiperazin-1-yl)-2-oxoethyl]piperazine] was run?
A: > 90%

Q: Which inhibition at 4 µM (Table II "Ki", symbol "+": assay described in Example 8) does the source give for `COc1cc(C(=O)N2CCN(CC(=O)N3CCN(C4CCC4)CC3)CC2)nc2ccccc12` [Compound 895, 2-({4-[2-(4-cyclobutylpiperazin-1-yl)-2-oxoethyl]piperazin-1-yl}carbonyl)-4-methoxyquinoline] here?
A: > 90%

Q: `COc1cc(OC)cc(C(=O)N2CCN(CC(=O)N3CCN(C4CCC4)CC3)CC2)c1` [Compound 741, 1-cyclobutyl-4-{[4-(3,5-dimethoxybenzoyl)piperazin-1-yl]acetyl}piperazine] was tested. Which inhibition at 4 µM [2] did it give?
A: > 90%

Q: `O=C(Cc1ccc(Cl)c(Cl)c1)N1CCN(CC(=O)N2CCN(C3CCC3)CC2)CC1` [Compound 546, 1-cyclobutyl-4-({4-[(3,4-dichlorophenyl)acetyl]piperazin-1-yl}acetyl)piperazine] was tested. Which inhibition at 4 µM [3] did it give?
A: > 90%

Q: Which inhibition at 4 µM [3] does the source give for `COc1cccc(CC(=O)N2CCN(CC(=O)N3CCN(C4CCC4)CC3)CC2)c1` [Compound 552, 1-cyclobutyl-4-({4-[(3-methoxyphenyl)acetyl]piperazin-1-yl}acetyl)piperazine] here?
A: > 90%

Q: How did the inhibition at 4 µM [3] turn out when `COc1ccc(OCC(=O)N2CCN(CC(=O)N3CCN(C4CCC4)CC3)CC2)cc1` [Compound 562, 1-cyclobutyl-4-({4-[(4-methoxyphenoxy)acetyl]piperazin-1-yl}acetyl)piperazine] was run?
A: > 90%

Q: Which inhibition at 4 µM [1] does the source give for `O=C(CN1CCN(C(=O)c2cccc(Cl)c2)CC1)N1CCN(C2CCC2)CC1` [Compound 299, 1-(3-chlorobenzoyl)-4-[2-(4-cyclobutylpiperazin-1-yl)-2-oxoethyl]piperazine] here?
A: > 90%

Q: How did the inhibition at 4 µM [3] turn out when `Cc1ccccc1OCC(=O)N1CCN(CC(=O)N2CCN(C3CCC3)CC2)CC1` [Compound 538, 1-cyclobutyl-4-({4-[(2-methylphenoxy)acetyl]piperazin-1-yl}acetyl)piperazine] was run?
A: > 90%

Q: With `CSc1ccc(C(=O)N2CCN(CC(=O)N3CCN(C4CCC4)CC3)CC2)s1` [Compound 633, 1-cyclobutyl-4-[(4-{[5-(methylthio)-2-thienyl]carbonyl}piperazin-1-yl)acetyl]piperazine] as the molecule, how does the inhibition at 4 µM [2] read?
A: > 90%

Q: With `CSc1ncc(Cl)c(C(=O)N2CCN(CC(=O)N3CCN(C4CCC4)CC3)CC2)n1` [Compound 1164, 5-chloro-4-({4-[2-(4-cyclobutylpiperazin-1-yl)-2-oxoethyl]piperazin-1-yl}carbonyl)-2-(methylthio)pyrimidine] as the molecule, how does the inhibition at 4 µM (assay of Example 8, "+" in Ki of Table II) read?
A: > 90%
